Source: patent US20150290148A1 (priority 2006, published 2015)
“Also recorded” adds a separate entry of the source.

Assays:
[1] = test system: interleukin 10 (IL10) gene; test: Quantitative real time PCR of hippocampal gene expression after IP injection; type: in vivo, Sprague-Dawley rats
interleukin 6 (IL6) gene = test: as above; type: in vivo, Sprague-Dawley rats; conditions: 6 hours after single IP 1.0 mg/kg
BcL2 = test: as above; type: in vivo, Sprague-Dawley rats; conditions: 6 hours after single IP 1.0 mg/kg, vs saline
[2] = test system: brain derived neurotrophic factor; test: as above; type: in vivo, Sprague-Dawley rats; conditions: 6 hours after single IP 1.0 mg/kg, vs saline
neuropeptide Y = test: as above; type: in vivo, Sprague-Dawley rats; conditions: 6 hours after single IP 1.0 mg/kg, vs saline
neurotrophic factor 3 = test: as above; type: in vivo, Sprague-Dawley rats; conditions: 6 hours after single IP 1.0 mg/kg, vs saline
gerbils [3] = test: Gerbil 5-min 2-VO transient cerebral ischemia, open field activity; type: in vivo; conditions: for distance traveled in open field: tested 48 hrs after surgery, 5 min
Procedure: (§1) Gerbils were anesthetized with isoflurane and core-body temperature maintained at 37-38 C during surgery using a homeothermic blanket (Harvard Apparatus, South Natick, USA). A midline incision was made in the neck and the common carotid arteries were isolated and occluded for 5 min using 85-gm pressure aneurysm clips (ISCH; n=14). A second group of gerbils (SHAM; n=14) underwent the identical procedure except the carotid arteries were not clamped. The incision was sutured and animals received MAP (5 mg/kg; i.p) or equal volume of vehicle (saline; 0 mg) within 2 minutes of reperfusion. Animals were placed in a warmed cage, and observed for 30 minutes. Tylenol (8 mg/ml) was added to drinking water to provide postoperative analgesia.
(§2) Each gerbil was tested 48 hrs following surgery in an open-field apparatus consisting of a metal screen floor 77 cm×77 cm with walls 15 cm in height. Animals were placed in the center region and permitted to explore the novel environment for 5 minutes. Behavioral data (distance traveled, speed) were collected using an automated tracking system (ANY-maze, Stoelting, Ill.) and evaluated separately using ANOVA and the appropriate post hoc test (P<0.05 considered significant). Twenty-one days postsurgery, gerbils were euthanized with CO2 and perfused with phosphate buffered saline followed by 4% paraformaldehyde. Tissue from sham gerbils treated with MAP ([…]) was not evaluated since acute administration of MAP was not expected to histologically alter the hippocampus of this group. Brains were removed and post-fixed for at least 48 hrs prior to collection of 40 μm vibratome sections through the hippocampal region. Sections were mounted on slides and stained with cresyl violet. Damage to the hippocampal CA1 region was evaluated without knowledge of treatment condition by two independent observers using a 4 point rating scale described elsewhere (Babcock et al. 1993). A score of 0 (4-5 compact layers of normal neuronal bodies), 1 (4-5 compact layers with presence of some altered neurons), 2 (spares neuronal bodies with “ghost spaces” and/or glial cells between them), 3 (complete absence or presence of only rare normal neuronal bodies with intense gliosis of the CA1 subfield) was assigned for each animal. Ratings were averaged and evaluated using nonparametric statistics (Kruskal-Wallis and Mann-Whitney U test; P<0.05 considered significant).

hippocampal CA1 region = test: Gerbil 5-min 2-VO transient cerebral ischemia, histological rating of hippocampal CA1; type: in vivo; conditions: for damage to hippocampal CA1 following ischemic insult: MAP 5 mg/kg 1-2 minutes after ischemic insult
Procedure: as §1, §2

gerbils [4] = test: Preliminary dose study and observations in gerbils following surgery; type: in vivo, gerbil
male Wistar rats [5] = test: MCA embolic stroke in rats, infarct size by TTC staining; type: in vivo, rat
male Wistar rats [6] = test: MCA embolic stroke in rats, adhesive tape removal test; type: in vivo, rat
male Wistar rats [7] = test: MCA embolic stroke in rats, foot fault; type: in vivo, rat; conditions: 1.0 mg/kg/hr, started 0, 6 or 12 hours after stroke
male Wistar rats [8] = test: Traumatic brain injury (fluid percussion) in rats, tolerability; type: in vivo, rat; conditions: 0.5 mg/kg/hr 24 hr IV infusion plus bolus after TBI
Procedure: Three groups of male Wistar rats/group were used in this study. The animals were given 0 (vehicle control; saline), 0 (sham controls) or 0.5 mg/kg/hr MA via a 24 hr continuous IV infusion starting 3 hr after […] on Day 0. The test article was administered via an Alzet mini-osmotic pump at a rate of 0.0073 mL/hour. The dose concentration of MA loaded in the Alzet pump varied between animals (45.8-65.0 mg/mL), and was based on individual animal body weight on Day 0 and the dose concentration that would yield 0.5 mg/kg/hr MA at an infusion rate of 0.0073 mL/hr. Dosing of the animals was staggered over a 4-month period.
Prior to test article administration, all rats were subjected to a surgical procedure to produce a fluid percussion injury. Adult Sprague-Dawley rats (male, 350-500 g) are anesthetized with isoflurane anesthesia (1% isofluorane in 1 L/min O2) via face mask to effect for a small craniectomy (4.80 mm) and placement of a rigid Luer-loc needle hub (3 mm inside diameter). After luer lock hub placement, the hub is connected to the Cell Injury Controller through high pressure rubber tubing that delivers an fluid pulse to the dura. […] The righting reflex time after injury was recorded. […] Animals were monitored 3-4 times a day for the first 48 hr following surgery and daily thereafter for 14 days.

[9] = rats; cited from earlier work
male Wistar rats [10] = test: MCA embolic stroke in rats, modified neurological severity score / neurobehavioral outcomes
Excerpt: Male Wistar rats at ages of 8-12 weeks, weighing 300-450 g were used in all experiments. A donor rat was anesthetized with 3.5% Isoflurane, and anesthesia was maintained with 1.0-1.5% Isoflurane in 70% N2O and 30% O2 using a face mask. […] Rats were then anesthetized with 3.5% Isoflurane, and anesthesia was maintained with 1.0-1.5% Isoflurane in 70% N2O and 30% O2 using a face mask throughout the surgical procedure. The animal's muzzle was placed in the face mask 2 cm from the surgical site. Rectal temperature was maintained at 37±″0.5° C. throughout the surgical procedure using an electric heating system. Under a surgical operating microscope) the right common carotid arteries (CCA), the right external carotid artery (ECA) and the internal carotid artery (ICA) were isolated via a 3 cm ventral neck midline incision. A 6-0 silk suture was loosely tied at the origin of the ECA and ligated at the distal end of the ECA. The right CCA and ICA was temporarily clamped using a curved microvascular clip (Codman & Shurtleff, Inc., Randolf, MAP, USA). A modified PE-50 catheter filled with a single clot (˜1 μl), was attached to a 100-μl Hamilton syringe, and introduced into the ECA lumen through a small puncture. The suture around the origin of the ECA was tightened around the intraluminal catheter to prevent bleeding, and the microvascular clip was removed. The catheter was gently advanced from the ECA into the lumen of the ICA. The clot along with 5 μl of saline in the catheter was injected into the ICA over 10 seconds. The catheter was withdrawn from the right ECA immediately after injection. The right ECA was ligated. The duration of the entire surgical procedure was approximately 25 min.
Implantation of osmotic pumps for the purpose of continuous IV infusion occurred at both 6 and 12 hours after delivery of the 4cm clot. Experimental control for the experiment was achieved by substituting methamphetamine for physiological saline. Briefly, at 6 or 12 hours post stroke animals were re-anesthetized using 1-3% isoflurane. After a state of anesthesia was achieved the right side groin area was shaved. After shaving, surgical tape was utilized to remove excess hair. The area was scrubbed with betadine and allowed to dry.
A small incision was made and the groin area was blunt dissected to expose the femoral vein. The femoral vein was separated with surgical tweezers and the distal end was permanently ligated using 6-0 silk thread. The proximal end was ligated and a 0.2 mm incision (approximate) was made in the femoral vein. A 2.5 cm length of polyvinyl tubing (OD 0.07mm) connected to a pre-loaded osmotic pump (Alzet Corp. model 2001D; 6.6 microliters per hour for 24 hrs) was inserted into the vein and gently pushed up towards midline of the body. The tubing was inserted until 0.5 cm was exposed from the vein. The tubing was tied around the vein in two locations using 6-0 silk spaced approximately 2 mm apart. A small pocket was blunt dissected along the groin/abdominal area. The osmotic pump was inserted into the area on the outer wall of the abdomen underneath the skin and sutured into the abdominal fascia using 4-0 synthetic suture. The incision was closed using 4-0 synthetic suture. At 48-72 hours after initial insertion the animal was anesthetized, the groin area was scrubbed with betadine, the incision was reopened, blunt dissected, and the pump exposed. The sutures holding the pump and tubing in place were cut, the pump removed, and the femoral vein was permanently ligated using 6-0 silk suture. The pump was discarded and the incision was closed using 4-0 synthetic suture.

[11] = 0.1 mg/kg/hr IV infusion 24 hrs, immediately after stroke
[12] = 1.0 mg/kg/hr IV infusion 24 hrs, started 6 hours after stroke
[13] = 1.0 mg/kg/hr IV infusion 24 hrs, started 6 hours after stroke, listed as MAP
[14] = 1.0 mg/kg/hr IV infusion 24 hrs, started 12 hours after stroke, listed as MAP
[15] = 0.5 and 1.0 mg/kg/hr IV infusion 24 hrs, immediately after stroke
[16] = 0.5 and 1.0 mg/kg/hr IV infusion 24 hrs, immediately after stroke, listed as MAP

CN[C@@H](C)Cc1ccccc1 [methamphetamine]
change in IL10 gene expression in hippocampus ([1]; 1 hour after single IP 1.0 mg/kg, vs saline): 445% | IL10 expression in hippocampus vs saline ([1]; 6 hours after single IP 1.0 mg/kg): not significantly different from saline treated animals | IL6 expression in hippocampus vs saline (interleukin 6 (IL6) gene): not significantly different from saline treated animals | change in BcL2 gene expression in hippocampus (BcL2): +167% | change in brain derived neurotrophic factor gene expression in hippocampus [2]: +141% | change in neuropeptide Y gene expression in hippocampus (neuropeptide Y): +192% | change in neurotrophic factor 3 gene expression in hippocampus (neurotrophic factor 3): +192% | open field activity, SHAM+5 mg vs SHAM+0 mg (gerbils [3]; MAP 5 mg/kg i.p., 48 hrs after surgery): failed to significantly alter activity levels | open field activity, ischemic vs sham gerbils both treated with MAP (gerbils [3]; MAP 5 mg/kg i.p., 48 hrs after surgery, listed as MAP): not significantly different; also recorded: comparable to control levels | distance traveled in open field (gerbils [3]; ischemic gerbils, MAP 5 mg/kg i.p. within 2 min of reperfusion): 66.3 m | distance traveled in open field (gerbils [3]; sham gerbils, MAP 5 mg/kg i.p.): 72.7 m | histological rating score of hippocampal CA1 damage (0-3 scale) (hippocampal CA1 region; ISCH+5 mg MAP group, 21 days after ischemic insult): 0.07±0.07 | damage to hippocampal CA1 following ischemic insult (hippocampal CA1 region; 21 days): significantly reduced damage to the hippocampal CA1; also recorded: failed to exhibit any damage to the hippocampus | damage to hippocampal CA1 following ischemic insult (hippocampal CA1 region; 21 days, listed as MAP): prevented any significant loss of hippocampal CA1 pyramidal cells | animals with any detectable neuronal pathology in the hippocampus (hippocampal CA1 region; ischemic gerbils treated with MAP 5 mg/kg, 21 days): 1 of 7 | lethality in gerbils following surgery (gerbils [4]; doses greater than 5 mg/kg (10 and 20 mg/kg)): lethal | clinical observation after treatment (gerbils [4]; gerbils, MAP 5 mg/kg i.p. after surgery): became piloerect with their tails pointing up | infarct size / infarct volume at 7 days (male Wistar rats [5]; [11]): No significant reductions in infarct volumes | infarct size / infarct volume at 7 days (male Wistar rats [5]; 0.1 mg/kg/hr IV infusion 24 hrs, immediately after stroke, listed as MAP): failed to decrease the infarct size | infarct size / infarct volume at 7 days (male Wistar rats [5]; [12]): significant reduction in infarct volumes; also recorded: significantly reduces infarct size | infarct size / infarct volume at 7 days (male Wistar rats [5]; [13]): significantly reduced infarct size | infarct size / infarct volume at 7 days (male Wistar rats [5]; [14]): still significantly reduces infarct size | infarct size / infarct volume at 7 days (male Wistar rats [5]; [15]): reduces brain damage (infarct size); also recorded: significant reduction in infarct volumes | infarct size / infarct volume at 7 days (male Wistar rats [5]; [16]): decreased infarct size | infarct size / infarct volume at 7 days (male Wistar rats [5]; 0.5 and 1.0 mg/kg/hr IV infusion 24 hrs, immediately after stroke, listed as Methamphetamine): decreases infarct size | animals with substantial reduction in infarct volumes (male Wistar rats [5]; infusion beginning 12 hours after stroke): Four out of the nine | time to remove adhesive tape, day 7 vs day 1 (male Wistar rats [6]; [11]): no significant change in the time to remove tape | time to remove adhesive tape, day 7 vs day 1 (male Wistar rats [6]; 1 mg/kg/hr started 6 hours after stroke): improvement in function was still observed | time to remove adhesive tape, day 7 vs day 1 (male Wistar rats [6]; 1 mg/kg/hr withheld until 12 hours after stroke (data not shown)): failed to produce an effect | time to remove adhesive tape, day 7 vs day 1 (male Wistar rats [6]; 0.5 or 1.0 mg/kg/hr IV infusion 24 hrs, immediately after stroke): required significantly less time to remove the tape | foot fault values (male Wistar rats [7]): significant improvements in foot fault values | tolerability (male Wistar rats [8]): well tolerated with no toxicity | half-life [9]: approximately 1 hr | neurobehavioral outcomes (neurological severity score) (male Wistar rats [10]; [11]): improved neurobehavioral outcomes | neurobehavioral outcomes (neurological severity score) (male Wistar rats [10]; [12]): significant improvement in neurological severity scores; also recorded: significantly decreased neurobehavioral deficits | neurobehavioral outcomes (neurological severity score) (male Wistar rats [10]; [13]): improved neurobehavioral outcomes on all testing parameters | neurobehavioral outcomes (neurological severity score) (male Wistar rats [10]; 1.0 mg/kg/hr IV infusion 24 hrs, started 12 hours after stroke): significant improvement in neurological severity scores; also recorded: significantly decreased neurobehavioral deficits | neurobehavioral outcomes (neurological severity score) (male Wistar rats [10]; [14]): robust effect on neurobehavioral outcomes | neurobehavioral outcomes (neurological severity score) (male Wistar rats [10]; [15]): significant improvement in neurological severity scores | neurobehavioral outcomes (neurological severity score) (male Wistar rats [10]; [16]): improved neurobehavioral outcomes
